The text below walks through data of patent publication US12349706B2, “Compositions and methods related to excipients and cannabinoid formulations” (Natural Extraction Systems, LLC, priority 2020, dated 2025).

Assay type in all cases: in vivo
Assay [1] has as its system Sabra mice. The experiment in a line: Zymosan-induced inflammatory paw swelling, measured with a caliper. The note with it: zymosan in left hind paw, paw swelling by caliper, 300 milligrams formulation (cannabinoid in propylene glycol, xylitol solid phase) in 15 milliliters water, oral gavage. The method, then:
(§1) The activity of formulations set forth in this disclosure is assayed in Sabra mice. 300 milligrams of a formulation is combined with 15 milliliters of water and administered by oral gavage. Each formulation comprises a liquid phase that contains propylene glycol and a solid phase that contains xylitol. The liquid phase contains a cannabinoid selected from CBD, THC, Δ8-THC, CBG, CBDV, THCV, Δ8-THCV, CBGV, CBC, CBN, tetrahydrocannabiphorol, perrottetinene, nabilone, parahexyl, HUM-217, and HU-331, which is dissolved in the propylene glycol, and controls lack any cannabinoid.
(§2) Zymosan is injected into the left hind paws of each mouse to induce pain, inflammation, and tumor necrosis factor (“TNF”) signaling. Inflammatory paw swelling is measured with a caliper. Pain is measured with a Von Frey hair aesthesiometer. Plasma TNF is measured […].

In assay [2] the test system is Sabra mice. The experiment in a line: Zymosan-induced paw pain, Von Frey hair aesthesiometer. The note with it: zymosan in left hind paw, 300 milligrams formulation (cannabinoid in propylene glycol, xylitol solid phase) in 15 milliliters water, oral gavage. As to the method: as §1, §2
Assay [3] deals with tumor necrosis factor (“TNF”) signaling. The assay can be described thus: Plasma TNF after zymosan injection, measured by HPLC. The conditions noted are these: Sabra mice, zymosan in left hind paw, 300 milligrams formulation (cannabinoid in propylene glycol, xylitol solid phase) in 15 milliliters water, oral gavage. As to the method: as §1, §2

Regarding `C=C(C)[C@@H]1CCC(C)=C[C@H]1c1c(O)cc(CCCCC)cc1O` [CBD], in the assay on Sabra mice [1], the “reduction in inflammation relative to controls” value is “robust reduction”. The “reduction in pain relative to controls” value in the assay on Sabra mice [2] is listed as “robust reduction”. Also, the “reduction in TNF signaling relative to controls” value in assay [3] is listed as “robust reduction”.
`C=C(C)[C@@H]1CCC(C)=C[C@H]1C1=C(O)C(=O)C(CCCCC)=CC1=O` [HU-331]: the “reduction in inflammation relative to controls” value in the assay on Sabra mice [1] was “robust reduction”. For the same compound, in the assay on Sabra mice [2], the “reduction in pain relative to controls” value was “robust reduction”. Moreover, the “reduction in TNF signaling relative to controls” value in assay [3] was “robust reduction”.
In the case of `CCCCCCC(C)(C)c1cc(O)c2c(c1)OC(C)(C)C1CCC(=O)CC21` (stereo not drawn) [nabilone], the “reduction in inflammation relative to controls” value in the assay on Sabra mice [1] is “modest reduction”. Further, the “reduction in pain relative to controls” value in the assay with Sabra mice [2] is reported as “modest reduction”. Further, the “reduction in TNF signaling relative to controls” value in assay [3] is “modest reduction”.
For the compound `CCCc1cc(O)c2c(c1)OC(C)(C)[C@@H]1CC=C(C)C[C@@H]21` [Δ8-THCV], the “reduction in inflammation relative to controls” value with Sabra mice [1] was “modest reduction”. Also, the “reduction in pain relative to controls” value in the assay with Sabra mice [2] is “modest reduction”. The “reduction in TNF signaling relative to controls” value in assay [3] is “modest reduction”.
As for `CCCCCc1cc(O)c2c(c1)OC(C)(C)[C@@H]1CC=C(C)C[C@@H]21` [Δ8-THC], the “reduction in inflammation relative to controls” value with Sabra mice [1] was “modest reduction”. Moreover, the “reduction in pain relative to controls” value with Sabra mice [2] is “modest reduction”. The “reduction in TNF signaling relative to controls” value in assay [3] is reported as “modest reduction”.
With `CCCCCc1cc(O)c2c(c1)OC(C)(C)[C@@H]1CCC(C)=C[C@@H]21` [THC], the “reduction in inflammation relative to controls” value with Sabra mice [1] is “modest reduction”. Further, the “reduction in pain relative to controls” value in the assay on Sabra mice [2] was “modest reduction”. The “reduction in TNF signaling relative to controls” value in assay [3] is on record as “modest reduction”.
For `CCCCCc1cc(O)c2c(c1)OC(C)(CCC=C(C)C)C=C2` (stereo not drawn) [CBC], in the assay with Sabra mice [1], the “reduction in inflammation relative to controls” value was “no detectable effect”. In the assay with Sabra mice [2], the “reduction in pain relative to controls” value is recorded as “no detectable effect”. Also, in assay [3], the “reduction in TNF signaling relative to controls” value was “no detectable effect”.
For the compound `CCCCCCCc1cc(O)c2c(c1)OC(C)(C)[C@@H]1CCC(C)=C[C@@H]21` [tetrahydrocannabiphorol], the “reduction in inflammation relative to controls” value in the assay on Sabra mice [1] is “modest reduction”. Besides, the “reduction in pain relative to controls” value in the assay with Sabra mice [2] is reported as “modest reduction”. In addition, the “reduction in TNF signaling relative to controls” value in assay [3] is “modest reduction”.
For the compound `CCCc1cc(O)c2c(c1)OC(C)(C)[C@@H]1CCC(C)=C[C@@H]21` [THCV], the “reduction in inflammation relative to controls” value in the assay on Sabra mice [1] is given as “modest reduction”. Also, in the assay with Sabra mice [2], the “reduction in pain relative to controls” value is “modest reduction”. Further, the “reduction in TNF signaling relative to controls” value in assay [3] was “modest reduction”.
As for `CCCCCCc1cc(O)c2c(c1)OC(C)(C)C1=C2CC(C)CC1` (stereo not drawn) [parahexyl], the “reduction in inflammation relative to controls” value in the assay with Sabra mice [1] is reported as “modest reduction”. For the same compound, in the assay on Sabra mice [2], the “reduction in pain relative to controls” value is “modest reduction”. Also, the “reduction in TNF signaling relative to controls” value in assay [3] is given as “modest reduction”.
`CCCCCc1cc(O)c2c(c1)OC(C)(C)c1ccc(C)cc1-2` [CBN]: the “reduction in inflammation relative to controls” value in the assay with Sabra mice [1] was “modest reduction”. In the assay on Sabra mice [2], the “reduction in pain relative to controls” value is “modest reduction”. Also, in assay [3], the “reduction in TNF signaling relative to controls” value was “modest reduction”.
Regarding `CCCCCc1cc(O)c(C/C=C(\C)CCC=C(C)C)c(O)c1` [CBG], in the assay with Sabra mice [1], the “reduction in inflammation relative to controls” value is given as “modest reduction”. Moreover, in the assay on Sabra mice [2], the “reduction in pain relative to controls” value is recorded as “modest reduction”. Further, the “reduction in TNF signaling relative to controls” value in assay [3] is listed as “modest reduction”.
For `CC1=C[C@H]2c3c(O)cc(CCc4ccccc4)cc3OC(C)(C)[C@H]2CC1` [perrottetinene], in the assay with Sabra mice [1], the “reduction in inflammation relative to controls” value was “modest reduction”. In addition, the “reduction in pain relative to controls” value in the assay with Sabra mice [2] was “modest reduction”. The “reduction in TNF signaling relative to controls” value in assay [3] is on record as “modest reduction”.
Consider `C=C(C)[C@@H]1CCC(C)=C[C@H]1c1c(O)cc(CCC)cc1O` [CBDV], for which the “reduction in inflammation relative to controls” value in the assay on Sabra mice [1] is “robust reduction”. For the same compound, the “reduction in pain relative to controls” value in the assay with Sabra mice [2] was “robust reduction”. In assay [3], the “reduction in TNF signaling relative to controls” value is on record as “robust reduction”.
